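Method: 48-hour compound exposure of cells in 96-well plates, five concentrations, linear interpolation of endpoints. GI50 marks 50% less growth. TGI: concentration producing complete growth inhibition.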
How the values were obtained:
Assay in all cases: NCI-60 cell line screen, 48 h
786-0 renal = system: 786-0 renal
A498 renal = system: A498 renal
A549 NSCLC = system: A549 NSCLC
ACHN renal = system: ACHN renal
BT-549 breast = system: BT-549 breast
CAKI-1 renal = system: CAKI-1 renal
CCRF-CEM leukemia = system: CCRF-CEM leukemia
COLO 205 colon = system: COLO 205 colon
DU-145 prostate = system: DU-145 prostate
EKVX NSCLC = system: EKVX NSCLC
HCC-2998 colon = system: HCC-2998 colon
HCT-116 colon = system: HCT-116 colon
HCT-15 colon = system: HCT-15 colon
HL-60(TB) leukemia = system: HL-60(TB) leukemia
HOP-62 NSCLC = system: HOP-62 NSCLC
HOP-92 NSCLC = system: HOP-92 NSCLC
HS 578T breast = system: HS 578T breast
HT29 colon = system: HT29 colon
IGROV1 ovarian = system: IGROV1 ovarian
K-562 leukemia = system: K-562 leukemia
KM12 colon = system: KM12 colon
LOX IMVI melanoma = system: LOX IMVI melanoma
M14 melanoma = system: M14 melanoma
MALME-3M melanoma = system: MALME-3M melanoma
MCF7 breast = system: MCF7 breast
MDA-MB-231 breast = system: MDA-MB-231 breast
MDA-MB-435 = system: MDA-MB-435
MOLT-4 leukemia = system: MOLT-4 leukemia
NCI-H226 lung = system: NCI-H226 lung
NCI-H23 lung = system: NCI-H23 lung
NCI-H460 lung = system: NCI-H460 lung
NCI-H522 lung = system: NCI-H522 lung
NCI/ADR-RES ovarian = system: NCI/ADR-RES ovarian
OVCAR-4 ovarian = system: OVCAR-4 ovarian
OVCAR-5 ovarian = system: OVCAR-5 ovarian
OVCAR-8 ovarian = system: OVCAR-8 ovarian
PC-3 prostate = system: PC-3 prostate
RPMI-8226 leukemia = system: RPMI-8226 leukemia
RXF 393 renal = system: RXF 393 renal
SF-268 CNS = system: SF-268 CNS
SF-295 CNS = system: SF-295 CNS
SF-539 CNS = system: SF-539 CNS
SK-MEL-2 melanoma = system: SK-MEL-2 melanoma
SK-MEL-28 melanoma = system: SK-MEL-28 melanoma
SK-MEL-5 melanoma = system: SK-MEL-5 melanoma
SK-OV-3 ovarian = system: SK-OV-3 ovarian
SN12C renal = system: SN12C renal
SNB-19 CNS = system: SNB-19 CNS
SNB-75 CNS = system: SNB-75 CNS
SR leukemia = system: SR leukemia
SW-620 colon = system: SW-620 colon
T-47D breast = system: T-47D breast
TK-10 renal = system: TK-10 renal
U251 CNS = system: U251 CNS
UACC-257 melanoma = system: UACC-257 melanoma
UACC-62 melanoma = system: UACC-62 melanoma
UO-31 renal = system: UO-31 renal

Structure (SMILES): O=C(NNc1nc2cc(F)ccc2n2c(CN3CCC(O)C3)ccc12)c1cnccn1 (stereo not drawn)
- GI50 (786-0 renal): 308 nM
- TGI (786-0 renal): > 22800 nM
- GI50 (A498 renal): 2040 nM
- TGI (A498 renal): 8910 nM
- GI50 (A549 NSCLC): 555 nM
- TGI (A549 NSCLC): > 100000 nM
- GI50 (ACHN renal): 217 nM
- TGI (ACHN renal): 36200 nM
- GI50 (BT-549 breast): 327 nM
- TGI (BT-549 breast): 9350 nM
- GI50 (CAKI-1 renal): 515 nM
- TGI (CAKI-1 renal): > 100000 nM
- GI50 (CCRF-CEM leukemia): 347 nM
- TGI (CCRF-CEM leukemia): > 100000 nM
- GI50 (COLO 205 colon): 406 nM
- TGI (COLO 205 colon): > 100000 nM
- GI50 (DU-145 prostate): 981 nM
- TGI (DU-145 prostate): > 100000 nM
- GI50 (EKVX NSCLC): 449 nM
- TGI (EKVX NSCLC): > 100000 nM
- GI50 (HCC-2998 colon): 738 nM
- TGI (HCC-2998 colon): > 100000 nM
- GI50 (HCT-116 colon): 87.6 nM
- TGI (HCT-116 colon): > 35100 nM
- GI50 (HCT-15 colon): 148 nM
- TGI (HCT-15 colon): > 100000 nM
- GI50 (HL-60(TB) leukemia): 622 nM
- TGI (HL-60(TB) leukemia): 6360 nM
- GI50 (HOP-62 NSCLC): 429 nM
- TGI (HOP-62 NSCLC): > 30600 nM
- GI50 (HOP-92 NSCLC): 590 nM
- TGI (HOP-92 NSCLC): > 100000 nM
- GI50 (HS 578T breast): 8660 nM
- TGI (HS 578T breast): > 100000 nM
- GI50 (HT29 colon): 512 nM
- TGI (HT29 colon): > 100000 nM
- GI50 (IGROV1 ovarian): 679 nM
- TGI (IGROV1 ovarian): > 100000 nM
- GI50 (K-562 leukemia): 564 nM
- TGI (K-562 leukemia): > 100000 nM
- GI50 (KM12 colon): 573 nM
- TGI (KM12 colon): > 100000 nM
- GI50 (LOX IMVI melanoma): 417 nM
- TGI (LOX IMVI melanoma): 6160 nM
- TGI (M14 melanoma): 1080 nM
- GI50 (MALME-3M melanoma): 1570 nM
- TGI (MALME-3M melanoma): > 100000 nM
- GI50 (MCF7 breast): 725 nM
- TGI (MCF7 breast): > 100000 nM
- GI50 (MDA-MB-231 breast): 941 nM
- TGI (MDA-MB-231 breast): > 100000 nM
- GI50 (MDA-MB-435): 1580 nM
- TGI (MDA-MB-435): > 100000 nM
- GI50 (MOLT-4 leukemia): 489 nM
- TGI (MOLT-4 leukemia): > 51300 nM
- GI50 (NCI-H226 lung): 920 nM
- TGI (NCI-H226 lung): > 63400 nM
- GI50 (NCI-H23 lung): 1100 nM
- TGI (NCI-H23 lung): > 100000 nM
- GI50 (NCI-H460 lung): 315 nM
- TGI (NCI-H460 lung): > 31600 nM
- GI50 (NCI-H522 lung): 1130 nM
- TGI (NCI-H522 lung): 14700 nM
- GI50 (NCI/ADR-RES ovarian): 330 nM
- TGI (NCI/ADR-RES ovarian): > 35500 nM
- GI50 (OVCAR-4 ovarian): 676 nM
- TGI (OVCAR-4 ovarian): > 100000 nM
- GI50 (OVCAR-5 ovarian): 1830 nM
- TGI (OVCAR-5 ovarian): > 100000 nM
- GI50 (OVCAR-8 ovarian): 439 nM
- TGI (OVCAR-8 ovarian): > 44500 nM
- GI50 (PC-3 prostate): 790 nM
- TGI (PC-3 prostate): > 100000 nM
- GI50 (RPMI-8226 leukemia): 747 nM
- TGI (RPMI-8226 leukemia): > 100000 nM
- GI50 (RXF 393 renal): 946 nM
- TGI (RXF 393 renal): > 40500 nM
- GI50 (SF-268 CNS): 744 nM
- TGI (SF-268 CNS): > 100000 nM
- GI50 (SF-295 CNS): 421 nM
- TGI (SF-295 CNS): > 100000 nM
- GI50 (SF-539 CNS): 763 nM
- TGI (SF-539 CNS): > 100000 nM
- GI50 (SK-MEL-2 melanoma): 4090 nM
- TGI (SK-MEL-2 melanoma): > 100000 nM
- GI50 (SK-MEL-28 melanoma): 795 nM
- TGI (SK-MEL-28 melanoma): > 100000 nM
- GI50 (SK-MEL-5 melanoma): 1000 nM
- TGI (SK-MEL-5 melanoma): 8290 nM
- GI50 (SK-OV-3 ovarian): 858 nM
- TGI (SK-OV-3 ovarian): > 28900 nM
- GI50 (SN12C renal): 953 nM
- TGI (SN12C renal): > 100000 nM
- GI50 (SNB-19 CNS): 1000 nM
- TGI (SNB-19 CNS): > 100000 nM
- GI50 (SNB-75 CNS): 1960 nM
- TGI (SNB-75 CNS): > 30400 nM
- GI50 (SR leukemia): 389 nM
- TGI (SR leukemia): > 21800 nM
- GI50 (SW-620 colon): 973 nM
- TGI (SW-620 colon): > 100000 nM
- GI50 (T-47D breast): 1190 nM
- TGI (T-47D breast): > 100000 nM
- GI50 (TK-10 renal): 921 nM
- TGI (TK-10 renal): > 100000 nM
- GI50 (U251 CNS): 470 nM
- TGI (U251 CNS): > 100000 nM
- GI50 (UACC-257 melanoma): 1710 nM
- TGI (UACC-257 melanoma): 7530 nM
- GI50 (UACC-62 melanoma): 408 nM
- TGI (UACC-62 melanoma): 84400 nM
- GI50 (UO-31 renal): 97.2 nM
- TGI (UO-31 renal): 10100 nM

— PubChem BioAssay (NCI)
